Measured values from article PMC4569415, “Pro-Oxidant Activity of Amine-Pyridine-Based Iron Complexes Efficiently Kills Cancer and Cancer Stem-Like Cells” (PLoS ONE, 2015).
Structures can show the parent of a compound that is named as a salt.

Assays:
Hemolytic assay = format: cell-based; conditions: human, erythrocyte suspension of fresh human blood (5% vol/vol)
Procedure: The hemolytic activity of the compounds at 100 μmol/L was evaluated by determining hemoglobin release from erythrocyte suspensions of fresh human blood (5% vol/vol) as described.

CAPAN-1 cells [1] = experiment: MTT cytotoxicity assay; format: cell-based, human; conditions: MTT, 48 h of compound exposure
Procedure: (§1) The cytotoxic activity of the compounds was determined by MTT reduction assay as described. Compounds were diluted in Milli-Q water to obtain 1 mmol/L stock solutions. Appropriate aliquots of these solutions were diluted in the corresponding cell culture medium to obtain the final working concentrations. Aliquots of 5000 1BR3G cells, 6000 MCF-7, 6000 PC-3 cells, 10 000 CAPAN-1 cells, 4000 MCF 10A cells, 4000 HMLE cells or 4000 CCD-18Co cells were seeded in 96-well plates, 24 h prior to the treatments. Hematological cell lines were seeded at 400 000 cells/mL. Cells were treated with the corresponding compound at concentrations ranging from 0 to 100 μmol/L for 48 h. Three replicates for each compound were used. The IC50 was established for each compound by standard non-linear regression and curve fitting using GraphPad Prism (Graph Pad software Inc., La Jolla, CA, USA).

MCF-7 cells [2] = experiment: MTT cytotoxicity assay; format: cell-based, human; conditions: MTT, 48 h of compound exposure
Procedure: as §1

PC-3 = experiment: MTT cytotoxicity assay; format: cell-based; conditions: Homo sapiens, 48 h of treatment
Procedure: as §1

CCD-18Co = experiment: MTT cytotoxicity assay; format: cell-based; conditions: Homo sapiens, 48 h of treatment, non malignant cells
Procedure: as §1

Z-138 = experiment: MTT cytotoxicity assay; format: cell-based; conditions: Homo sapiens, 48 h of treatment
Procedure: as §1

1BR3G = experiment: MTT cytotoxicity assay; format: cell-based; conditions: Homo sapiens, 48 h of treatment, non malignant cells
Procedure: as §1

JURKAT = experiment: MTT cytotoxicity assay; format: cell-based; conditions: Homo sapiens, 48 h of treatment
Procedure: as §1

MCF-10A = experiment: MTT cytotoxicity assay; format: cell-based; conditions: Homo sapiens, 48 h of treatment, non malignant cells
Procedure: as §1

HMLE = experiment: MTT cytotoxicity assay; format: cell-based; conditions: Homo sapiens, 48 h of treatment, non malignant cells
Procedure: as §1

MCF-7 cells [3] = experiment: Cellular labile iron pool with calcein-AM; format: cell-based, human; conditions: MCF-7
MCF-7 and CAPAN-1 cells = experiment: MTT cell viability with modulators (QVD-Oph, FeCl2); format: cell-based, human; conditions: FeCl2 alone at 1, 10 or 100 μmol/L, 48 h
Procedure: as §1
Fig 4 Induction of caspase activity. (A) The indicated cell lines were treated for 48 h with compounds 1, 2 and 5 (10 μmol/L) and caspase 3/7 activity was measured as indicated in Materials and Methods. Bar charts show the fold increase in caspase activity relative to untreated (control) and represent the mean±SD from three independent experiments performed in triplicate. (B) MCF-7 and CAPAN-1 cells were treated for 48 h with the ligands (10 μM) in the absence (-) or presence (+) of the pan-caspase inhibitor QVD-Oph (20 μM) and cell viability was measured with the MTT assay. […] Data represents the mean ± SD of 3 independent experiments performed in triplicate. The differences between absence and presence of QVD-OPh treatment were statistically significant at * p<0.05, **p<0.01 and ***p<0.001.
Fig 9 Effects of iron on 1, 2 and 5 activity. (A) Effect of 2 h FeCl2 pre-incubation (FeCl2 p) (dotted line) or co-incubation (FeCl2 c) (dashed line) at 1, 10 or 100 μmol/L on the cytotoxicity of 2 (5 μmol/L) in MCF-7 and CAPAN-1 cells. FeCl2 alone was included as a control (solid line). Cell viability was determined after 48 h of treatment by the MTT assay. (B) Effect of FeCl2 pre-incubation or co-incubation (100 μmol/L) on the cytotoxicity of 2 (5 μmol/L), 1 and 5 (10 μmol/L). Cells treated with the ligands alone were included as a reference (control). (C) ROS induction in CAPAN-1 cells after 24 h treatment with 2 (10 μmol/L) alone, together with FeCl2 or after FeCl2 pre-incubation (at 100 μmol/L). Results are presented as a percentage of untreated cells and represent mean±SD of 3 independent experiments. *p < 0.05 versus control cells.

CAPAN-1 cells [4] = experiment: Cellular labile iron pool with calcein-AM; format: cell-based, human; conditions: CAPAN-1, 100 μmol/L, 24 h
Procedure: The cellular labile iron pool was determined with calcein-AM. CAPAN-1 cells (125 000 cells/ well) were seeded in 24-well plates and incubated for 24 h. Then, cells were treated for 24 h with 10 μmol/L of compound 1, 2 or 5 at 37°C. In some experiments, cells were incubated for 2 h with 100 μmol/L of DFO or 100 μmol/L FeCl2. Cells exposed to the vehicle alone were used as a control. After treatments, cells were washed with PBS and incubated with calcein-AM (0.25 μmol/L) for 30 min at 37°C in the dark. Subsequently, cells were washed and collected with trypsin and the geometric mean fluorescence intensity of 10 000 cells was determined by flow cytometry as described.

[5] = tested on: CS-like HMLER-shEcad cells; experiment: MTT cytotoxicity assay in cancer stem-like cells; format: cell-based, human; conditions: 48 h
Procedure: as §1
(§2) Fig 2 Cell viability assay. (A) Cytotoxic activity of compounds 1, 2, and 5 against cancer cells. The indicated cell lines were treated for 48 h with ligands (10 μmol/L) and cell viability was measured with the MTT assay. Data represents the percentage of viable cells relative to untreated cells (control). (B) Cytotoxicity of doxorubicin and compounds 1, 2 and 5 against CS-like cells. CS-like HMLER-shEcad cells and non-CS-like HMLER isogenic parental cells were treated for 48 h with graded concentrations of doxorubicin, 1, 2 and 5. Cell viability was measured with the MTT assay. For each treatment, the percentage of viable cells relative to untreated cells is indicated. Data represents the mean±SD of 3 independent experiments performed in triplicate.

HMLER cells = experiment: MTT cytotoxicity assay in non-CS-like parental cells; format: cell-based; conditions: Homo sapiens, 48 h
Procedure: as §1, §2

Compound: CN1CCN(C)CCN(Cc2ccccn2)CC1 [Compound 4]
- hemolysis at 100 µM (Hemolytic assay): 0%
- IC50 (CAPAN-1 cells [1]; Homo sapiens, CAPAN-1): 32 ± 10.4 µM
- IC50 (MCF-7 cells [2]; Homo sapiens, MCF7): 88.5 ± 0.7 µM
- IC50 (PC-3): > 100 µM
- IC50 (CCD-18Co): > 100 µM
- IC50 (Z-138): 23.1 ± 1.8 µM
- IC50 (1BR3G): 78 ± 8.5 µM
- IC50 (JURKAT): > 100 µM
- IC50 (MCF-10A): > 100 µM
- IC50 (HMLE): 47.7 ± 4.5 µM

Compound: CC(=O)N(O)CCCCCNC(=O)CCC(=O)N(O)CCCCCNC(=O)CCC(=O)N(O)CCCCCN [DFO, deferoxaminemesylate salt, reference compound]
- calcein fluorescence increase after DFO incubation (MCF-7 cells [3]): 132.1±16.5%

Compound: [Cl][Fe][Cl] [FeCl2, reference compound]
- effect on cell viability (MCF-7 and CAPAN-1 cells): did not affect the viability
- calcein fluorescence intensity, % of control cells (CAPAN-1 cells [4]): 74.2±15.5%

Compound: COc1cccc2c1C(=O)c1c(O)c3c(c(O)c1C2=O)C[C@@](O)(C(=O)CO)C[C@@H]3O[C@H]1C[C@H](N)[C@H](O)[C@H](C)O1 [doxorubicin, reference compound]
- fold increase in IC50, HMLER-shECad vs HMLER [5]: ~ 3 fold
- IC50 ([5]; Homo sapiens): 300 ± 20 nM
- IC50 (HMLER cells): 100 ± 20 nM

Compound: N.N.[Cl][Pt][Cl] [Cisplatin, reference compound]
- IC50 (CAPAN-1 cells [1]): 2.2 ± 0.3 µM
- IC50 (MCF-7 cells [2]): 2.4 ± 0.4 µM

Compound: CN(Cc1ccccn1)[C@H]1CCCC[C@@H]1N(C)Cc1ccccn1 [Compound 3]
- hemolysis at 100 µM (Hemolytic assay): 0%
- IC50 (CAPAN-1 cells [1]; Homo sapiens, CAPAN-1): 27.7 ± 2.9 µM
- IC50 (MCF-7 cells [2]; Homo sapiens, MCF7): 40.6 ± 2.5 µM
- IC50 (PC-3): 35 ± 4.2 µM
- IC50 (CCD-18Co): > 100 µM
- IC50 (Z-138): 16.5 ± 1.4 µM
- IC50 (1BR3G): 45 ± 1 µM
- IC50 (JURKAT): > 100 µM
- IC50 (MCF-10A): 39.7 ± 2.9 µM
- IC50 (HMLE): 32.5 ± 3.8 µM
